Assay results reported in PubChem BioAssay (NCI).
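Method: 48-hour compound exposure of cells in 96-well plates, five concentrations, linear interpolation of endpoints. The concentration for 50% growth inhibition is given as GI50. TGI: total growth inhibition.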

Columns and labels:
Experiment in all cases: growth of human tumour cells (NCI), 48 h
[1] = tested on: SNB-75 CNS
[2] = tested on: HL-60(TB) leukemia
[3] = tested on: SF-295 CNS
[4] = tested on: SNB-19 CNS
[5] = tested on: HOP-62 NSCLC
[6] = tested on: NCI-H226 lung
[7] = tested on: HCC-2998 colon
[8] = tested on: OVCAR-4 ovarian
[9] = tested on: SN12C renal
[10] = tested on: T-47D breast
[11] = tested on: K-562 leukemia
[12] = tested on: COLO 205 colon
[13] = tested on: M14 melanoma
[14] = tested on: RPMI-8226 leukemia
[15] = tested on: MALME-3M melanoma
[16] = tested on: LOX IMVI melanoma
[17] = tested on: NCI-H460 lung
[18] = tested on: NCI-H522 lung
[19] = tested on: SF-539 CNS
[20] = tested on: UO-31 renal
[21] = tested on: SK-MEL-28 melanoma
[22] = tested on: U251 CNS
[23] = tested on: CCRF-CEM leukemia
[24] = tested on: A498 renal
[25] = tested on: HT29 colon
[26] = tested on: BT-549 breast
[27] = tested on: 786-0 renal
[28] = tested on: HOP-92 NSCLC
[29] = tested on: NCI-H23 lung
[30] = tested on: MOLT-4 leukemia
[31] = tested on: SF-268 CNS
[32] = tested on: SK-MEL-5 melanoma
[33] = tested on: HCT-116 colon
[34] = tested on: ACHN renal
[35] = tested on: KM12 colon
[36] = tested on: HS 578T breast
[37] = tested on: SK-OV-3 ovarian
[38] = tested on: CAKI-1 renal
[39] = tested on: MCF7 breast
[40] = tested on: NCI/ADR-RES ovarian
[41] = tested on: MDA-MB-435
[42] = tested on: HCT-15 colon
[43] = tested on: RXF 393 renal
[44] = tested on: OVCAR-8 ovarian
[45] = tested on: OVCAR-5 ovarian
[46] = tested on: MDA-MB-231 breast
[47] = tested on: SR leukemia
[48] = tested on: TK-10 renal
[49] = tested on: A549 NSCLC
[50] = tested on: UACC-62 melanoma
[51] = tested on: PC-3 prostate
[52] = tested on: IGROV1 ovarian
[53] = tested on: DU-145 prostate
[54] = tested on: EKVX NSCLC
[55] = tested on: UACC-257 melanoma
[56] = tested on: SW-620 colon
[57] = tested on: SK-MEL-2 melanoma

Q: With `Oc1cccc2ccc(-c3nnc(SCc4ccc(O)c5ncccc45)o3)nc12` as the molecule, how does the GI50 [1] read?
A: 177 nM

Q: And the TGI [1]?
A: > 22600 nM

Q: What about the GI50 [2] of the same molecule?
A: 583 nM

Q: And the TGI [2]?
A: > 100000 nM

Q: And the GI50 [3]?
A: 315 nM

Q: And the TGI [3]?
A: > 25700 nM

Q: What about the GI50 [4] of the same molecule?
A: 273 nM

Q: What about the TGI [4] of the same molecule?
A: > 100000 nM

Q: And the GI50 [5]?
A: 369 nM

Q: What about the TGI [5] of the same molecule?
A: > 40200 nM

Q: What about the GI50 [6] of the same molecule?
A: 2410 nM

Q: And the TGI [6]?
A: > 100000 nM

Q: What about the GI50 [7] of the same molecule?
A: 643 nM

Q: And the TGI [7]?
A: > 100000 nM

Q: What about the GI50 [8] of the same molecule?
A: 2000 nM

Q: And the TGI [8]?
A: > 100000 nM

Q: And the GI50 [9]?
A: 280 nM

Q: And the TGI [9]?
A: > 100000 nM

Q: What about the GI50 [10] of the same molecule?
A: 428 nM

Q: And the TGI [10]?
A: > 100000 nM

Q: What about the GI50 [11] of the same molecule?
A: 147 nM

Q: And the TGI [11]?
A: > 100000 nM

Q: And the GI50 [12]?
A: 1730 nM

Q: What about the TGI [12] of the same molecule?
A: 4960 nM

Q: And the GI50 [13]?
A: 332 nM

Q: What about the TGI [13] of the same molecule?
A: 79500 nM

Q: What about the GI50 [14] of the same molecule?
A: 266 nM

Q: And the TGI [14]?
A: > 100000 nM

Q: What about the GI50 [15] of the same molecule?
A: 365 nM

Q: What about the TGI [15] of the same molecule?
A: 3810 nM

Q: What about the GI50 [16] of the same molecule?
A: 120 nM

Q: And the TGI [16]?
A: > 100000 nM

Q: What about the GI50 [17] of the same molecule?
A: 39.3 nM

Q: And the TGI [17]?
A: 11400 nM

Q: And the GI50 [18]?
A: 440 nM

Q: What about the TGI [18] of the same molecule?
A: 5540 nM

Q: And the GI50 [19]?
A: 275 nM

Q: What about the TGI [19] of the same molecule?
A: > 100000 nM

Q: And the GI50 [20]?
A: 299 nM

Q: What about the TGI [20] of the same molecule?
A: 7240 nM

Q: What about the GI50 [21] of the same molecule?
A: 492 nM

Q: What about the TGI [21] of the same molecule?
A: > 100000 nM

Q: What about the GI50 [22] of the same molecule?
A: 103 nM

Q: And the TGI [22]?
A: > 100000 nM

Q: And the GI50 [23]?
A: 329 nM

Q: And the TGI [23]?
A: > 100000 nM

Q: And the GI50 [24]?
A: 1200 nM

Q: And the TGI [24]?
A: 7320 nM

Q: What about the GI50 [25] of the same molecule?
A: 4910 nM

Q: What about the TGI [25] of the same molecule?
A: > 100000 nM

Q: What about the GI50 [26] of the same molecule?
A: 110 nM

Q: And the TGI [26]?
A: > 20700 nM

Q: What about the GI50 [27] of the same molecule?
A: 627 nM

Q: What about the TGI [27] of the same molecule?
A: > 100000 nM

Q: And the GI50 [28]?
A: 173 nM

Q: And the TGI [28]?
A: 707 nM

Q: What about the GI50 [29] of the same molecule?
A: 268 nM

Q: What about the TGI [29] of the same molecule?
A: > 100000 nM

Q: What about the GI50 [30] of the same molecule?
A: 457 nM

Q: What about the TGI [30] of the same molecule?
A: > 100000 nM

Q: And the GI50 [31]?
A: 226 nM

Q: And the TGI [31]?
A: > 100000 nM

Q: What about the GI50 [32] of the same molecule?
A: 326 nM

Q: What about the TGI [32] of the same molecule?
A: 1550 nM

Q: And the GI50 [33]?
A: 71 nM

Q: What about the TGI [33] of the same molecule?
A: > 100000 nM

Q: What about the GI50 [34] of the same molecule?
A: 419 nM

Q: What about the TGI [34] of the same molecule?
A: > 100000 nM

Q: And the GI50 [35]?
A: 432 nM

Q: What about the TGI [35] of the same molecule?
A: > 100000 nM

Q: What about the GI50 [36] of the same molecule?
A: 181 nM

Q: And the GI50 [37]?
A: 761 nM

Q: What about the TGI [37] of the same molecule?
A: 5280 nM

Q: What about the GI50 [38] of the same molecule?
A: 428 nM

Q: What about the TGI [38] of the same molecule?
A: > 100000 nM

Q: What about the GI50 [39] of the same molecule?
A: 367 nM

Q: And the TGI [39]?
A: > 32400 nM

Q: What about the GI50 [40] of the same molecule?
A: 696 nM

Q: And the TGI [40]?
A: > 100000 nM

Q: And the GI50 [41]?
A: 294 nM

Q: And the TGI [41]?
A: > 100000 nM

Q: And the GI50 [42]?
A: 158 nM

Q: And the TGI [42]?
A: > 100000 nM

Q: And the GI50 [43]?
A: 350 nM

Q: What about the TGI [43] of the same molecule?
A: > 24500 nM

Q: And the GI50 [44]?
A: 302 nM

Q: What about the TGI [44] of the same molecule?
A: > 100000 nM

Q: What about the GI50 [45] of the same molecule?
A: 2170 nM

Q: What about the TGI [45] of the same molecule?
A: > 100000 nM

Q: And the GI50 [46]?
A: 1650 nM

Q: What about the TGI [46] of the same molecule?
A: > 100000 nM

Q: What about the GI50 [47] of the same molecule?
A: 338 nM

Q: And the TGI [47]?
A: > 100000 nM

Q: And the GI50 [48]?
A: 1990 nM

Q: And the TGI [48]?
A: > 27100 nM

Q: What about the GI50 [49] of the same molecule?
A: 204 nM

Q: What about the TGI [49] of the same molecule?
A: > 100000 nM

Q: And the GI50 [50]?
A: 467 nM

Q: And the TGI [50]?
A: 19700 nM

Q: And the GI50 [51]?
A: 175 nM

Q: And the TGI [51]?
A: > 100000 nM

Q: What about the GI50 [52] of the same molecule?
A: 457 nM

Q: And the TGI [52]?
A: > 100000 nM

Q: And the GI50 [53]?
A: 117 nM

Q: What about the TGI [53] of the same molecule?
A: > 100000 nM

Q: And the GI50 [54]?
A: 807 nM

Q: What about the TGI [54] of the same molecule?
A: > 100000 nM

Q: And the GI50 [55]?
A: 413 nM

Q: And the TGI [55]?
A: 4510 nM

Q: What about the GI50 [56] of the same molecule?
A: 452 nM

Q: What about the TGI [56] of the same molecule?
A: > 100000 nM

Q: What about the GI50 [57] of the same molecule?
A: 513 nM

Q: And the TGI [57]?
A: 2700 nM
